Results as given in article PMC4917279 (Journal of Medicinal Chemistry, 2016).

Test system: KYSE-150 esophageal xenograft
Assay type: in vivo
Details: (S)-4 500 mg/kg po qd; doxorubicin 10 mg/kg iv once at day 4

For `COc1cccc2c1C(=O)c1c(O)c3c(c(O)c1C2=O)C[C@@](O)(C(=O)CO)C[C@@H]3O[C@H]1C[C@H](N)[C@H](O)[C@H](C)O1` [Doxorubicin, doxorubicin], the “Antitumor efficacy relative to vehicle control” value was “no significant antitumor efficacy”.
